Where no end group is shown, it is not given here.

In assay [1] the test system is somatostatin receptor/K+ channel linkage in human growth hormone-secreting pituitary adenoma cells. Nature of the assay: Somatostatin-induced K+ currents, whole cell patch clamp. It is filed as cell-based. As to conditions: 100 nM somatostatin, absence of anticouplone peptides. Here is the method:
Inhibition Of somatostatin receptor function. It is known that somatostatin induces K^+ channel activation in a manner sensitive to pertussis toxin in human growth hormone-secreting tumors (Yamashita et al., Am. J. Physiol. 253:E28-E32, 1987). The effect of each of ACGi2, ACGi3, ACGs, ACGo1, and ACGo2 on somatostatin-induced K^+ currents in human pituitary cells was measured using the patch clamp technique, as described below.
Three human growth hormone-secreting pituitary adenomas were obtained at transsphenoidal surgery. The tissue was minced into small pieces (less than 1 mm in diameter) and was treated with 1000 units/ml dispase (Wako, Japan). These dissociated cells (≈10^5 cells/ml) were seeded onto 35-mm culture dishes. […]
A whole cell variation of the patch electrode voltage clamp technique was used to record membrane currents (Hamill et al., Pfluger Arch. 391:85-100, […]). […] The liquid junction potential between the extracellular solution and the internal solution was directly measured using a 3M KCl electrode as a reference. […]
The intracellular solution that filled the inside of the pipet portion of the apparatus contained one of the following anticouplone peptides at 100 μM: ACGi2, ACGi3, ACGs, ACGo1, or ACGo2. The exterior of the cell was bathed with the extracellular solution containing 100 nM somatostatin while the outward K^+ current was monitored. […]

The target in the next assay is T1, Gi2 (Bos taurus, UniProt A7MBH9).
T1 construct: trimeric Gi2 (i.e., Gi2 αβγ) purified from bovine brain to near homogeneity; from tissue; host or cells: bovine brain
Put plainly: GTPγS binding assay, peptide 14-induced Gi2 activation. It is filed as biochemical, bovine. The note with it: 10 μM peptide variant, 10 nM Gi2, 30 μM peptide 14. How it is done: Materials and Methods The in vitro assays described below utilize the couplone portion of each of a number of G-coupled receptors, instead of an intact receptor molecule, as a means for activating the corresponding anticouplone or intact G-protein. Except as noted below, Gi2 used in this study was trimeric Gi2 (i.e., Gi2 αβγ) purified from bovine brain to near homogeneity (Katada et al., FEBS Lett. 213:353-358 (1987), stored in buffer A (20 mM hepes/NaOH (pH 7.4), 1 mM EDTA, and 0.7% CHAPS), and diluted≥10 fold for assays. The Gi2 used for the reconstitution experiment was trimeric Gi2 purified from bovine spleen to homogeneity and dissolved in buffer B (Morishita et al., 1989). Gi3 α (Morishita et al., Biochem. Biophys. Res. Commun. 172:249-255 (1990), was purified from bovine spleen and used in combination with 1.5-fold concentrated Gβγ (Katada et al., 1987). This preparation of Gi3 α was 10-20% contaminated by Gi1 α, but not by other G proteins. Trimeric Gs and Gβγ purified from bovine brain to near homogeneity (Katada et al., 1987) were also stored in buffer A.
GTPγS binding Assay--GTPγS binding to G proteins was assayed at 37° C. in 20 mM Hepes/NaOH buffer (pH 7.4) containing 130 μM MgCl2, 110 μM EDTA and 60 nM [^35 S]GTPγS, as described previously (Okamoto et al., 1990). GTPγS binding to polypeptides was negligible. The total amount of G protein was measured as maximal GTPγS binding at room temperature, as described (Okamoto et al., Cell 67:723-730, 1991a). [^35 S]GTPγS was purchased from DuPont-New England Nuclear. Binding of GTPγS to G proteins obeyed first-order kinetics according to the equation ln[(BT-B)/BT]=-kapp t, where B is the binding at time t and BT is the total binding observable at an infinite time. Thus, the apparent first-order rate constant for GTPγS binding (kapp), which is equal to the slope of the tangent to the GTPγS binding curve at time 0 and represents the actual GTPγS binding rate, was calculated from this equation.
In the experiment illustrated in FIG. 1A, 10 nM Gi2 was incubated with 30 μM peptide 14 (RVGLVRGEKARKGK; SEQ ID NO: 27), the couplone portion of the IGF-II receptor, in the presence of various concentrations of (.quadrature.) ACGi2 (DAVTDVIIKNNLKDC; SEQ ID NO: 3), (567 ) the control Gi2 α Glu297-Asp310 peptide (EAASYIQSKFEKLN; SEQ ID NO: 18), or (.diamond.) the control Gi2 α Lys346-Phe355 peptide (KNNLKDCGLF; SEQ ID NO: 19) for 5 min under the GTPγS binding assay conditions described above, and GTPγS binding to G proteins was measured. The effect of ACGi2 on Gi2 in the absence of peptide 14 is indicated by .box-solid.. Percent stimulation of GTPγS binding was calculated by subtracting the basal fractional binding and dividing by the stimulated fractional binding observed in the absence of ACGi2. The basal fractional binding (=0%) was 0.39 mol GTPγS binding/mol Gi /5 min (5 min^-1). The 100% increase represents the GTPγS binding of 0.85 (5 min^-1). Values in all figures represent the mean ±S.E. of three experiments.
To verify the notion that ACGi2 acts on Gi2 itself, and not on receptor sequences, two series of experiments were performed. First, the dose-response curve for peptide 14 action on Gi2 in the presence of various concentrations of ACGi2 was generated (FIG. 2A). Following incubation of 10 nM Gi2 with various concentrations of peptide 14 in the absence (.quadrature.) or presence of 10 μM (.diamond-solid.) or 30 μM (.box-solid.) ACGi2 for 5 min, GTPγS binding was assayed; fractional GTPγS binding to Gi2 is indicated in the figure.
The second series of experiments investigated the effect of ACGi2 on lower concentrations of Gi2 that had been activated by peptide 14 to the same extent (FIG. 2B). 1 nM Gi2 was incubated for 5 min with 3 μM peptide 14 in the presence of various concentrations of ACGi2, and GTPγS binding was measured. The fractional GTPγS binding at 0% and 100% in this experiment was 0.40 and 0.55 (5 min^-1), respectively. […]

The next assay concerns T cell receptor. Nature of the assay: OKT3-induced polyphosphoinositide turnover in Jurkat cells. It counts as cell-based, human. As to conditions: OKT3 1:100 for 5 min, no peptide. How it is done:
Inhibition of T cell receptor function with ACGq. T cell receptor stimulation by monoclonal antibody OKT^3 in Jurkat cells, a line of human T cells, induces measurable polyphosphoinositide (PI) turnover. 10^7 cells were labelled with 5 μCi/ml [^3 H]myoinositol in inositol-free RPMI1640 for 12 hours. After incubating the cells with 500 μM ACGq, samples containing 5×10^5 cells were then exposed to the monoclonal antibody OKT3 (Ortho) at 1:100 dilution for 5 min. Perchloric acid was added to a final concentration of 10% to lyse the cells and terminate the reaction. Cell lysates were collected into tubes and brought to pH>8 by the addition of KOH. Following centrifugation of the lysates, the supernatants were passed over a DOWX anion exchange column (Muromachi Chemicals, Japan) to separate inositol polyphosphates (IPs) from other inositol metabolites, and the amount of [^3 H] label in the inositol trisphosphate (IP3) fraction assessed.

In assay [2] the test system is NRK (rat renal fibroblast) cells. Nature of the assay: TGFβ-induced fibronectin secretion, immunoblot. It is filed as cell-based. As to conditions: 50 pM TGFβ, 12 hours. The text has this:
Inhibition of TGFβ-induced matrix formation. The secretion of matrix proteins (in particular, fibronectin) by kidney, lung and liver cells may lead to sclerosis of those organs. Transforming growth factor-β (TGFβ), which stimulates the secretion of fibronectin, may therefore contribute to such sclerosis. Since the TGFβ receptor is a Go2 -coupled receptor, the ability of ACGo2 to inhibit the TGFβ-induced stimulation of fibronectin secretion by NRK (rat renal fibroblast) cells (Ignotz and Massague, J. Biol. Chem. 261:4337-4345, 1986) was assayed.
NRK cells were cultured in RPMI 1640 supplemented with 5% FCS in a CO2 -incubator at 37° C. The medium was replaced every two days. Cells were regularly subcultured by trypsin-EDTA before reaching confluency. In the experiments described below, the cells were grown in monolayer to confluency in 6-well culture plates (Corning, N.Y.), then incubated for 12 hours with RPMI 1640 plus 0.5% FCS, and for a further 12 hours with RPMI 1640 plus 0.5% FCS in the presence or absence of 50 pM TGFβ (R & D System, Minneapolis, Minn.), to which was added 100 μM ACGi2, ACGs, ACGo2, or ACGq. The medium from each well was collected and frozen at -20° C. until assay. Fibronectin secreted into each sample of medium was assessed by immunoblot as follows: […]

T1 sequence (A7MBH9 2-355 limits assumed): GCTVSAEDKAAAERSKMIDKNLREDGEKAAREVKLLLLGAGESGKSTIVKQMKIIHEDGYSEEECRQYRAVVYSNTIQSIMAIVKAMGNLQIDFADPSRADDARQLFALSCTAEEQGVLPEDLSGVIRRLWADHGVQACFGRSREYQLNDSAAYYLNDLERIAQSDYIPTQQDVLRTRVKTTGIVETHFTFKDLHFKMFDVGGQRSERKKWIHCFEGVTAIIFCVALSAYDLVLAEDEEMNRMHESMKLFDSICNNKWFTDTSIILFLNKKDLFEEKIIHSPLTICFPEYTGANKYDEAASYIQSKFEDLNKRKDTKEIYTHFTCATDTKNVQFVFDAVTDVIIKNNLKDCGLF
T1 sequence (P62871 2-340 partner limits assumed): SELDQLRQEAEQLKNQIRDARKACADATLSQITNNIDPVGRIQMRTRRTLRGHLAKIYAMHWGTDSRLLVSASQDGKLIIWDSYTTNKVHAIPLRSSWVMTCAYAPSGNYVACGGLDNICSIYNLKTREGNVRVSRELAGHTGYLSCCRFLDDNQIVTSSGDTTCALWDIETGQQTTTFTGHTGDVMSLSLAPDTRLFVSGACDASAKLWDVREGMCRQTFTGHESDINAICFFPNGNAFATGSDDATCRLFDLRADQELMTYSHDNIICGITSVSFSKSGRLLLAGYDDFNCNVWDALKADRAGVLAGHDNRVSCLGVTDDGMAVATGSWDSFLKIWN
T1 sequence (P63212 2-68 partner limits assumed): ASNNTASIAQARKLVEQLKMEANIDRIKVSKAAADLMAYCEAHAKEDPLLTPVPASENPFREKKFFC

Turning to `C[C@H](N)C(=O)NCC(=O)N[C@H]1CSSC[C@@H](C(=O)O)NC(=O)[C@H](CO)NC(=O)[C@H]([C@@H](C)O)NC(=O)[C@H](Cc2ccccc2)NC(=O)[C@H]([C@@H](C)O)NC(=O)[C@H](CCCCN)NC(=O)[C@H](Cc2c[nH]c3ccccc23)NC(=O)[C@H](Cc2ccccc2)NC(=O)[C@H](Cc2ccccc2)NC(=O)[C@H](CC(N)=O)NC(=O)[C@H](CCCCN)NC1=O` [somatostatin], the “K+ current induced over baseline” value in assay [1] is listed as “approximately 20 pA”.
“AAVTDVIIKNNLKDC [A1 variant, AAVTDVIIKNNLKDC]”: the inhibition at 10 µM on Gi2 is no less than 30%.
With “DAVTAVIIKNNLKDC [A2 variant, DAVTAVIIKNNLKDC]”, the inhibition at 10 µM at Gi2 was no less than 80%.
Same read-out and setting: then DAVTDVIIK [p9 variant, DAVTDVIIK], with no less than 30%; and “DAVTDVIIKANLKDC [A3 variant, DAVTDVIIKANLKDC]”, with no less than 30%.
As for “DAVTDVIIKNNLKAC [A5 variant, DAVTDVIIKNNLKAC]”, the inhibition at 10 µM on Gi2 is no less than 80%.
Regarding “DAVTDVIIKNNLKD [del C variant, DAVTDVIIKNNLKD]”, on Gi2, the inhibition at 10 µM was no less than 30%.
In the case of “OKT3: monoclonal antibody OKT3 (Ortho) stimulating the T cell receptor”, in the assay on T cell receptor, the “[3H] incorporation into IP relative to control cells not exposed to OKT3” value is given as 157%.
On to “TGFβ: Transforming growth factor-β, which stimulates the secretion of fibronectin”, for which the “fibronectin secreted by cells exposed to TGFβ” value in assay [2] is listed as “significant amount of fibronectin is secreted”.

The values are drawn from patent US5559209A, “Regulator regions of G proteins” (The General Hospital Corporation, priority 1993, dated 1996).
